Test results taken from patent publication US6706767B2, “Therapeutics for chemokine mediated diseases” (Chemokine Therapeutics Corporation, priority 2000, dated 2004).
Like-named read-outs stand apart in the source and are kept apart here.

Columns and labels:
MCP-1 receptor (CCR-2) = MCP-1 receptor (CCR-2) (Homo sapiens, UniProt P41597); experiment: Inhibition of I125-labeled MCP-1 binding to the MCP-1 receptor (CCR-2); settings: I125 labeled MCP-1 as competitor; FIG. 1
Experimental: A dose response of phenanthrene-9,10-dione at different concentration in comparison to MCP-1.
This example discloses the ability of tricyclic compounds of the invention, such as phenanthrene-9,10-dione (compound 1), for inhibiting binding to the MCP-1 receptor (CCR-2). The binding studies were conducted using I^125 labeled MCP-1 as competitor. […] In FIG. 1, the results of competition studies are plotted using a standard scatchard plot analysis.

CXCR1 = biological target: T1, CXCR1 (Homo sapiens, UniProt P25024); experiment: Inhibition of IL-8 binding to CXCR1; settings: FIG. 8
T1 sequence (P25024 1-350): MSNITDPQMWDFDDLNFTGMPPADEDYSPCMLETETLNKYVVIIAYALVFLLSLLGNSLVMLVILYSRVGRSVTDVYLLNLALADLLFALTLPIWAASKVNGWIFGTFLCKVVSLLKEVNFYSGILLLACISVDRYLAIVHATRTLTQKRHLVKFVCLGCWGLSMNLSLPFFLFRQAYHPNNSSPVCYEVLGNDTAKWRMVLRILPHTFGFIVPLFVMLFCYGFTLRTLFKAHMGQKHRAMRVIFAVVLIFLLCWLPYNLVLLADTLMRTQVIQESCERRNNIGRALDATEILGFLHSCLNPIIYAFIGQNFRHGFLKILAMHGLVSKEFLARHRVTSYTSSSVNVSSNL

CXCR2 = biological target: T2, CXCR2 (Homo sapiens, UniProt P25025); experiment: Inhibition of IL-8 binding to CXCR2; settings: FIG. 8
T2 sequence (P25025 1-360): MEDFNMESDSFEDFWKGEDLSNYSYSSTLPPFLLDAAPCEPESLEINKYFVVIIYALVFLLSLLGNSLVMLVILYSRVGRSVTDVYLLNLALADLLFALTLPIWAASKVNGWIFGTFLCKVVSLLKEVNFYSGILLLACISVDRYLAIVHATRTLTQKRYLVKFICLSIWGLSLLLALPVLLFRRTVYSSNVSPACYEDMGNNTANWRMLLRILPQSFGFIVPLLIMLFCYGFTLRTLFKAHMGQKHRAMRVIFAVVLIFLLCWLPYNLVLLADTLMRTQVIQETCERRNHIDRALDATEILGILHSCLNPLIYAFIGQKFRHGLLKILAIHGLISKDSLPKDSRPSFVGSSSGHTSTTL

THP-1 cells = experiment: Inhibition of MCP-1 induced [Ca2+]i mobilization in Fura-2,AM loaded THP-1 cells; assay type: cell-based; settings: Homo sapiens, 0.5 h, 30 min incubation
Experimental: (§1) Fura-2,AM loaded THP-1 cells were incubated with M163 for 30 min prior to induction of [Ca^2+]i mobilization by 20 nM MCP-1. Cells were also evaluated in the presence of fMLP (1 mM)/cytochalasin B (0.5 mM) or M163 (600 ng/ml) as positive and negative controls respectively. […] The values represent the mean +/− one S.D.

THP-1 cells and T-cells = experiment: Cytoplasmic calcium rise induced by the compound itself; assay type: cell-based; settings: analogous to native MCP-1
Experimental: as §1

human neutrophils = experiment: Inhibition of IL-8 induced [Ca2+]i mobilization in human neutrophils; assay type: cell-based; settings: 30 minutes incubation, 10 nM IL-8
Experimental: Freshly isolated neutrophils loaded with Fura-2,AM were incubated with phenanthrene-9,10-dione for 30 minutes prior to induction of [Ca^2+]i mobilization by 10 nM IL-8. Values represent the increase in mobilization over basal levels (wavelength averaging at approximately 176 nM) and are the mean +/− one S.D. of n=3 experiments.

EAE mouse model = EAE mouse model of Multiple Sclerosis, clinical scores; assay type: in vivo; settings: 1 mg/kg/day for 14 days, compared to control saline injection
Excerpt: Experimental autoimmune encephalomyelitis (EAE) is a CD4^+ Th1-mediated inflammatory demyelinating disease of the central nervous system (CNS) that serves as a model for multiple sclerosis. It has previously been disclosed that monocyte chemotactic protein-one (MCP-1) regulates acute and relapsing autoimmune encephalomyelitis, and that MCP-1 production in the central nervous system is correlated with relapsing EAE development. In this example, the EAE mouse model for MS is used, in which the disease is induced with Bordetella pertussis toxin (Claude C. A. et. al., (1975) Journal of Immunology 114(5): 1537-1540 and Hosseimi, H. et. al., (2000) Neurology 54 (7): A166, An abstract presented in April 2000 on “Inhibition of proteosome prevents clinical signs in an experimental model of Multiple Sclerosis”). A dose of 1 mg/kg/day in a volume of 100 μl saline was given to animals for 14 days, and individual animals were observed daily and graded accordingly to their clinical severity as follows: grade 0, no abnormality; grade 1, limp tail; grade 2, limp tail and partial hind limb weakness; grade 3, complete hind limb paralysis; grade 4, complete hind limb paralysis and fore limb weakness; grade 5, death.

neutrophils [1] = experiment: CPPD crystal induced neutrophil activation (chemiluminescence); assay type: cell-based; settings: 0.3 μg/ml and 1 μg/ml
Excerpt: (§2) In accordance with this aspect of the invention, tricyclic comounds such as phenanthrene-9,10-dione or corresponding salts may be used for the treatment of inflammatory diseases related to gout and arthritis.

neutrophils [2] = experiment: fMLP induced neutrophil activation (chemiluminescence); assay type: cell-based; settings: 0.3 μg/ml and 1 μg/ml
Excerpt: as §2

neutrophils [3] = experiment: fMLP induced neutrophil calcium level; assay type: cell-based; settings: FIG. 6, after 15 seconds stimulation

Chain of MCP-1 receptor (CCR-2) (P41597 whole entry, species assumed): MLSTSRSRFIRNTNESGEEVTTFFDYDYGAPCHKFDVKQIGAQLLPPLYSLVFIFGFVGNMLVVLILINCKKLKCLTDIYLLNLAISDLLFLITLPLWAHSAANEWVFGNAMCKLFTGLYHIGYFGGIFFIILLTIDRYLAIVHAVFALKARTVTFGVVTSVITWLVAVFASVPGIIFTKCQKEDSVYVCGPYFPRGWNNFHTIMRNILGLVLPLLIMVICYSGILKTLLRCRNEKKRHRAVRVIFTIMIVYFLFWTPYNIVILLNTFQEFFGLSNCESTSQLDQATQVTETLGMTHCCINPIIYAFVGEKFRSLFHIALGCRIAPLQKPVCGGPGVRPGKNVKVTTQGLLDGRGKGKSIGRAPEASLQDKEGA

Q: `O=C1C(=O)c2ccccc2-c2ccccc21` [phenanthrene-9,10-dione] was tested. Which “inhibitory effect on the binding of MCP-1 to CCR-2” value (MCP-1 receptor (CCR-2)) did it give?
A: inhibitory effect

Q: What about the “inhibitory effect on the binding of IL-8 to CXCR1” value (CXCR1) of the same compound?
A: inhibitory effect

Q: And the “inhibitory effect on the binding of IL-8 to CXCR2” value (CXCR2)?
A: inhibitory effect

Q: And the IC50 (THP-1 cells; 20 nM MCP-1, read-out: IC50, MCP-1 associated induction of [Ca2+]i mobilization)?
A: 0.25 µg/mL

Q: What about the IC50 (THP-1 cells; 20 nM MCP-1, value in parentheses, read-out: IC50, MCP-1 associated induction of [Ca2+]i mobilization) of the same compound?
A: 120 nM

Q: And the “effect on cytoplasmic calcium concentration” value (THP-1 cells and T-cells)?
A: induced a rapid, transient rise in cytoplasmic calcium concentration

Q: And the “suppression of calcium level (IL-8 induced [Ca2+]i mobilization)” value (human neutrophils; 3 μM)?
A: about 63%

Q: And the IC50 (human neutrophils; Neutrophil, 0.5 h)?
A: 3000 nM

Q: And the “effect on clinical scores” value (EAE mouse model)?
A: beneficial effect on the clinical scores

Q: And the “inhibition of CPPD crystal induced neutrophil activation” value (neutrophils [1])?
A: strong inhibition

Q: And the “inhibition of fMLP induced neutrophil activation” value (neutrophils [2])?
A: strong inhibition

Q: What about the “inhibition of intracellular calcium ion release” value (neutrophils [3]) of the same compound?
A: effective inhibitor of intracellular calcium ion release
